Experimental data as given in publication PMC11537071, “Identification and characterization of a carbohydrate recognition domain-like region in Entamoeba histolytica Gal/GalNAc lectin intermediate subunit” (Microbiology Spectrum, 2024).

Legend:
Igl-C3 = target: T1, Igl-C3 (Entamoeba histolytica, UniProt Q964D2); test: competition with FITC-PNA on Caco-2 cells; hemagglutination inhibition; assay type: cell-based; settings: 60 mM sugar, 300 nM protein, on ice; also hemagglutination of human group O erythrocytes
T1 construct: gene igl1; CRD-like region, residues 989-1,088 (100 aa), His-tagged, pET-19b, E. coli BL21 Star(DE3)pLysS

Igl-C = target: T2, Igl-C (Entamoeba histolytica, UniProt Q964D2); test: competition with FITC-PNA on Caco-2 cells; assay type: cell-based; settings: 60 mM sugar, 300 nM protein, on ice
T2 construct: gene igl1; C-terminal segment, 486 aa (contains Igl-C0 to C3, ends at about residue 1,088), His-tagged, pET-19b, E. coli BL21 Star(DE3)pLysS
T2 sequence (Q964D2 entry or part of it): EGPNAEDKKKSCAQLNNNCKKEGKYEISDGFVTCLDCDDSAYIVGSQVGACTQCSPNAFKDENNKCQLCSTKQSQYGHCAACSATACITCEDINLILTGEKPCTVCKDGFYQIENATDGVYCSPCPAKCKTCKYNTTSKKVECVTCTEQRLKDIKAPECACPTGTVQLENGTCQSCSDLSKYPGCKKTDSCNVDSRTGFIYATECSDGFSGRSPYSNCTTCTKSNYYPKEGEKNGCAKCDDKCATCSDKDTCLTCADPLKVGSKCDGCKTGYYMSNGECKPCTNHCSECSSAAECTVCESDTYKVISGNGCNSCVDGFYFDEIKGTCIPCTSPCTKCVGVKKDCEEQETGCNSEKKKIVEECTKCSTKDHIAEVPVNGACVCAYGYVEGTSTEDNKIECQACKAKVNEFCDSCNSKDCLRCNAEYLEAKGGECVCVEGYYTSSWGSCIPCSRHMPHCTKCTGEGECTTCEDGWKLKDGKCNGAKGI

T1 sequence (Q964D2 entry or part of it): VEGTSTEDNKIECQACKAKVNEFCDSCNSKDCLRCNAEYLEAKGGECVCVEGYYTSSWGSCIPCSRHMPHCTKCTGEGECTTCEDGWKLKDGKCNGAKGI

| Structure (SMILES) | competition with FITC-PNA on Caco-2 cells; hemagglutination inhibition (Igl-C3) | competition with FITC-PNA on Caco-2 cells (Igl-C) |
| --- | --- | --- |
| CC(=O)N[C@H]1C(O)O[C@H](CO)[C@H](O)[C@@H]1O (stereo partly drawn) [GalNAc, N-acetyl-D-galactosamine] | only Igl-C3 exhibited obvious hemagglutinating activity, which could be inhibited by Gal/GalNAc | this competitive process could in turn be weakened by the addition of Gal and GalNAc |
| OC[C@H]1OC(O)[C@H](O)[C@@H](O)[C@H]1O (stereo partly shown) [Gal, galactose] | only Igl-C3 exhibited obvious hemagglutinating activity, which could be inhibited by Gal/GalNAc | this competitive process could in turn be weakened by the addition of Gal and GalNAc |
